Measured values from patent US20080234262A1 (Wyeth, priority 2007, published 2008).
Like-named read-outs stand apart in the source and are kept apart here.

Assays:
[1] = system: breast line MDA468; assay: In vitro cell culture growth assay (MTS), MDA468; format: cell-based, human; conditions: MDA468 cells, three days after drug treatment
Procedure, shortened: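 MDA468 or LNCap cells received inhibitors one day after plating and were grown for three days. Viable cell density read by MTS conversion, absorbance 490 nm, expressed as percent of control growth versus vehicle-treated cells on the same plate.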

[2] = system: prostate line LNCap; assay: In vitro cell culture growth assay (MTS), LNCap; format: cell-based, human; conditions: LNCap cells, three days after drug treatment
[3] = target: PI3K (Homo sapiens, UniProt P42336); assay: Fluorescence polarization assay for PI3K; format: biochemical;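 note: PI3K kinase reaction on PIP2 with ATP, 30-60 min, product sensed by GST-GRP with red probe in fluorescence polarization (mP), controls without enzyme and at zero time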
Sequence of PI3K (P42336 whole entry): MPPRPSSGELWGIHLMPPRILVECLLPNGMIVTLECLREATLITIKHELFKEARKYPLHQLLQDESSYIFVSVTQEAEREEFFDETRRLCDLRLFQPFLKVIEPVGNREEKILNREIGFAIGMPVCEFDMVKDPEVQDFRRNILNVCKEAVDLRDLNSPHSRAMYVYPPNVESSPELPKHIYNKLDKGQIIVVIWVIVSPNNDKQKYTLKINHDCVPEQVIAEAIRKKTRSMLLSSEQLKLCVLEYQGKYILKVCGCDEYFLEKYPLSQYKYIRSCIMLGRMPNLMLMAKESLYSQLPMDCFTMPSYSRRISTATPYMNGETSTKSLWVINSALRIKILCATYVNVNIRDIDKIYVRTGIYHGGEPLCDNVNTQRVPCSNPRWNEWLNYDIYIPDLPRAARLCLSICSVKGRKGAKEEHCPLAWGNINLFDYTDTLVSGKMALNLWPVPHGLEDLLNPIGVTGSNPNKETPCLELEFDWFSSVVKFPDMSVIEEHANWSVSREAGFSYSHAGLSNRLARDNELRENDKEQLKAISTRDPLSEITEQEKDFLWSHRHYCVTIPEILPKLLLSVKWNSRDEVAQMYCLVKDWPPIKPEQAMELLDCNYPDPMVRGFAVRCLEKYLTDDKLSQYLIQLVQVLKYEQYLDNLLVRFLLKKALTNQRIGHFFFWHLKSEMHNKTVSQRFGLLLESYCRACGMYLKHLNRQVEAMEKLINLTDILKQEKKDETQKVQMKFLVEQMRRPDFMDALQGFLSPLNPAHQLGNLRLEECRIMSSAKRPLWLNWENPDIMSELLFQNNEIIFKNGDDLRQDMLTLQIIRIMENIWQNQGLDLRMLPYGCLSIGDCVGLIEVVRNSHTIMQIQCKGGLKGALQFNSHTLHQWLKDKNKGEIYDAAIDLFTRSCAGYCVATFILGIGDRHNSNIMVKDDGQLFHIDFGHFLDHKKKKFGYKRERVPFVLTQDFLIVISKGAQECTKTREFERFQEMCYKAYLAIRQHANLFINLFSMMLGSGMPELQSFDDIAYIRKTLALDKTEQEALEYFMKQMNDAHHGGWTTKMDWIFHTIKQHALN
Sequence of PI3K (P27986 whole entry partner): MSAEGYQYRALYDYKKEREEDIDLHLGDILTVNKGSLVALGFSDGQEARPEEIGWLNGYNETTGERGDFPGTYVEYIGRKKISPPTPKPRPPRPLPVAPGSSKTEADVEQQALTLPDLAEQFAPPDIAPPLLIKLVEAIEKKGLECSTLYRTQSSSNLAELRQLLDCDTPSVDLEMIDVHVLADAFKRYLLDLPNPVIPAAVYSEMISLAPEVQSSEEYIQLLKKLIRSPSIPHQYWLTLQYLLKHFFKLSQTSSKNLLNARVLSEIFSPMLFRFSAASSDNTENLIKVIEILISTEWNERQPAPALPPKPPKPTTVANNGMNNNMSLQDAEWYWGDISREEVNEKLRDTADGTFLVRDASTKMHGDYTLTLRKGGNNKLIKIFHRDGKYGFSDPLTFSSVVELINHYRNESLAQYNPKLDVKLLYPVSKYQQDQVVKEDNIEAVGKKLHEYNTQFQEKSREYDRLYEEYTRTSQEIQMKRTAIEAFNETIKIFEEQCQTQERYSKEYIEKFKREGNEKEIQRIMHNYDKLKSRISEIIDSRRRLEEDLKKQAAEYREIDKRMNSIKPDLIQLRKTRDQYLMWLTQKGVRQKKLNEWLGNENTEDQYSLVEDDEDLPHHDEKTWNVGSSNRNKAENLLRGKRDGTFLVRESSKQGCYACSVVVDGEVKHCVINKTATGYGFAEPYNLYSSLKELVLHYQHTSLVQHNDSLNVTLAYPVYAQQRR

SMILES | IC50 ([1]; Homo sapiens, 72 h) | IC50 ([2]; Homo sapiens, LNCaP, 72 h) | IC50 ([3]; PI3Kα, read-out: PI3Kα IC50) | IC50 ([2]; Homo sapiens, 72 h) | IC50 ([3]; PI3Kα IC50, PI3Kα) | IC50 [1] | IC50 [2]
CNC(=O)Nc1ccc(-c2nc(N3CCOCC3)c3cnn(C4CCNCC4)c3n2)cc1 [Compound 584, 1-methyl-3-[4-(4-morpholin-4-yl-1-piperidin-4-yl-1H-pyrazolo[3,4-d]pyrimidin-6-yl)phenyl]urea] | 1.3 µM | 0.5 µM | 0.022 µM |  |  |  | 
CNC(=O)Oc1ccc(-c2nc(N3CCOCC3)c3cnn(C4CCN(C(=O)OC)CC4)c3n2)cc1 [Compound 946, methyl 4-(6-{4-[(methylcarbamoyl)oxy]phenyl}-4-morpholin-4-yl-1H-pyrazolo[3,4-d]pyrimidin-1-yl)piperidine-1-carboxylate] | 7 µM |  |  | 1.6 µM | 13 µM |  | 
CNC(=O)Nc1ccc(-c2nc(N3CCOCC3)c3cnn(C4CCN(C(=O)c5cccnc5)CC4)c3n2)cn1 [Compound 725, 1-methyl-3-(5-{4-morpholin-4-yl-1-[1-(pyridin-3-ylcarbonyl)piperidin-4-yl]-1H-pyrazolo[3,4-d]pyrimidin-6-yl}pyridin-2-yl)urea] |  |  | 0.042 µM |  |  | 1.15 µM | 0.8 µM
CNC(=O)Nc1ccc(-c2nc(N3CCOCC3)c3cnn(C4CCN(CC(F)(F)F)CC4)c3n2)cc1 [Compound 714, 1-methyl-3-(4-{4-morpholin-4-yl-1-[1-(2,2,2-trifluoroethyl)piperidin-4-yl]-1H-pyrazolo[3,4-d]pyrimidin-6-yl}phenyl)urea] |  |  | 0.186 µM |  |  | 0.32 µM | 0.056 µM
CNC(=O)Nc1ccc(-c2nc(N3CCOCC3)c3cnn(C4CCN(C(=O)c5cccc(Cl)c5)CC4)c3n2)cc1 [Compound 604, 1-(4-{1-[1-(3-chlorobenzoyl)piperidin-4-yl]-4-morpholin-4-yl-1H-pyrazolo[3,4-d]pyrimidin-6-yl}phenyl)-3-methylurea] | 0.05 µM | < 0.027 µM | 0.053 µM |  |  |  | 
O=C(N1CCOCC1)N1CCC(n2ncc3c(N4CCOCC4)nc(-c4ccc5[nH]ccc5c4)nc32)CC1 [Compound 121] | 2 µM | 0.6 µM | 2.13 µM |  |  |  | 
O=C(NO)Nc1ccc(-c2nc(N3CCOCC3)c3cnn(C4CCN(C(=O)c5cccnc5)CC4)c3n2)cc1 [Example 305, 1-hydroxy-3-(4-{4-morpholin-4-yl-1-[1-(pyridin-3-ylcarbonyl)piperidin-4-yl]-1H-pyrazolo[3,4-d]pyrimidin-6-yl}phenyl)urea] | 7.2 µM | 10.1 µM | 0.604 µM |  |  |  | 
CNC(=O)Nc1ccc(-c2nc(N3CCOCC3)c3cnn(C4CCN(CC#N)CC4)c3n2)cc1 [Compound 793, 1-(4-{1-[1-(cyanomethyl)piperidin-4-yl]-4-morpholin-4-yl-1H-pyrazolo[3,4-d]pyrimidin-6-yl}phenyl)-3-methylurea] | 1.2 µM | 1.01 µM | 0.076 µM |  |  |  | 
CS(=O)(=O)Nc1ccc(-c2nc(N3CCOCC3)c3cnn(-c4ccccc4)c3n2)cc1 [Compound 99] | 5 µM | 3.5 µM | 0.332 µM |  |  |  | 
CC(C)C(=O)N1CCC(n2ncc3c(N4CCOCC4)nc(-c4ccc(NC(=O)Nc5ccccc5)cc4)nc32)CC1 [Compound 826, 1-{4-[1-(1-isobutyrylpiperidin-4-yl)-4-morpholin-4-yl-1H-pyrazolo[3,4-d]pyrimidin-6-yl]phenyl}-3-phenylurea] | 0.11 µM | 0.03 µM | 0.029 µM |  |  |  | 
COC(=O)N1CCC(n2ncc3c(N4CCOCC4)nc(-c4ccc(NC(=O)Nc5ccc(CCNCCN(C)C)cc5)cc4)nc32)CC1 [Compound 919, methyl 4-{6-[4-({[4-(2-{[2-(dimethylamino)ethyl]amino}ethyl)phenyl]carbamoyl}amino)phenyl]-4-morpholin-4-yl-1H-pyrazolo[3,4-d]pyrimidin-1-yl}piperidine-1-carboxylate] | 0.42 µM | 0.031 µM | 0.008 µM |  |  |  | 
O=C1COCCN1c1nc(-c2cccc(O)c2)nc2c1cnn2-c1ccccc1 [Compound 727, 4-[6-(3-hydroxyphenyl)-1-phenyl-1H-pyrazolo[3,4-d]pyrimidin-4-yl]morpholin-3-one] | > 60 µM | 55 µM | 11 µM |  |  |  | 
Nc1ccnc(-c2nc(N3CCOCC3)c3cnn(C4CCN(C(=O)c5cccnc5)CC4)c3n2)c1 [Compound 678, 2-{4-morpholin-4-yl-1-[1-(pyridin-3-ylcarbonyl)piperidin-4-yl]-1H-pyrazolo[3,4-d]pyrimidin-6-yl}pyridin-4-amine] |  |  | 6.66 µM |  |  | > 60 µM | 39 µM
COC(=O)N1CCC(n2ncc3c(N4CCOC(C)C4)nc(-c4ccc(NC(=O)NC5CC5)cc4)nc32)CC1 (stereo not drawn) [Compound 843, methyl 4-[6-{4-[(cyclopropylcarbamoyl)amino]phenyl}-4-(2-methylmorpholin-4-yl)-1H-pyrazolo[3,4-d]pyrimidin-1-yl]piperidine-1-carboxylate] | 0.9 µM | 0.08 µM | 1.38 µM |  |  |  | 
C#CCNC(=O)Nc1ccc(-c2nc(N3CCOCC3)c3cnn(C4CCN(Cc5ccccc5)CC4)c3n2)cc1 [Compound 312, 1-{4-[1-(1-benzylpiperidin-4-yl)-4-morpholin-4-yl-1H-pyrazolo[3,4-d]pyrimidin-6-yl]phenyl}-3-prop-2-yn-1-ylurea] | 3.9 µM | 0.4 µM | 0.173 µM |  |  |  | 
COC(=O)Nc1ccc(-c2nc(N3CCOCC3)c3cnn(C4CCN(CC(F)(F)F)CC4)c3n2)cc1 [Compound 781, methyl (4-{4-morpholin-4-yl-1-[1-(2,2,2-trifluoroethyl)piperidin-4-yl]-1H-pyrazolo[3,4-d]pyrimidin-6-yl}phenyl)carbamate] | 7.9 µM | 1.8 µM | 1.74 µM |  |  |  | 
O=C(Nc1ccc(-c2nc(N3CCOCC3)c3cnn(C4CCN(C(=O)c5cccnc5)CC4)c3n2)cc1)Nc1cccs1 [Compound 657, 1-(4-{4-morpholin-4-yl-1-[1-(pyridin-3-ylcarbonyl)piperidin-4-yl]-1H-pyrazolo[3,4-d]pyrimidin-6-yl}phenyl)-3-(2-thienyl)urea] | 0.04 µM |  | 0.014 µM |  |  |  | 0.035 µM
CCNC(=O)Nc1ccc(-c2nc(N3CCOCC3)c3cnn(C4CCN(Cc5ccccc5)CC4)c3n2)cc1F [Example 349, 1-{4-[1-(1-benzylpiperidin-4-yl)-4-morpholin-4-yl-1H-pyrazolo[3,4-d]pyrimidin-6-yl]-2-fluorophenyl}-3-ethylurea] | 2.5 µM | 0.23 µM | 0.485 µM |  |  |  | 
CNC(=O)Nc1ccc(-c2nc(N3CCOCC3)c3cnn(C4CCOCC4)c3n2)cc1 [Example 403, 1-methyl-3-{4-[4-morpholin-4-yl-1-(tetrahydro-2H-pyran-4-yl)-1H-pyrazolo[3,4-d]pyrimidin-6-yl]phenyl}urea] | 0.4 µM | 0.103 µM | 0.045 µM |  |  |  | 
COC(=O)N1CCC(n2ncc3c(N4CCOC(C)C4)nc(-c4ccc(NC(=O)Nc5ccccc5)cc4)nc32)CC1 (stereo not drawn) [Compound 848, methyl 4-[6-{4-[(anilinocarbonyl)amino]phenyl}-4-(2-methylmorpholin-4-yl)-1H-pyrazolo[3,4-d]pyrimidin-1-yl]piperidine-1-carboxylate] | 0.72 µM | 0.062 µM | 0.06 µM |  |  |  | 
CC(=O)Nc1ccc(-c2nc(N3CCOCC3)c3cnn(-c4ccccc4)c3n2)cn1 [Compound 148] | 60 µM | 60 µM | 0.162 µM |  |  |  | 
CNC(=O)Nc1ccc(-c2nc(N3CCOCC3)c3cnn(C4CCN(C(=O)C(C)C)CC4)c3n2)cc1 [Example 475, 1-{4-[1-(1-isobutyrylpiperidin-4-yl)-4-morpholin-4-yl-1H-pyrazolo[3,4-d]pyrimidin-6-yl]phenyl}-3-methylurea] | 0.3 µM | 0.15 µM | 0.148 µM |  |  |  | 
CCCCNC(=O)Nc1ccc(-c2nc(N3CCOCC3)c3cnn(C4CCN(Cc5ccccc5)CC4)c3n2)cc1 [Compound 185] | 3.9 µM | 1.2 µM | 0.18 µM |  |  |  | 
CN(C)CC=CC(=O)N1CCC(n2ncc3c(N4CCOCC4)nc(-c4ccc5[nH]ccc5c4)nc32)CC1 [Compound 234, 4-{4-[6-(1H-indol-5-yl)-4-morpholin-4-yl-1H-pyrazolo[3,4-d]pyrimidin-1-yl]piperidin-1-yl}-N,N-dimethyl-4-oxobut-2-en-1-amine] | 2 µM | 1 µM | 0.481 µM |  |  |  | 
O=C(C1CCCCC1)N1CCC(n2ncc3c(N4CCOCC4)nc(-c4cccc(O)c4)nc32)CC1 [Example 26] | 4 µM | 1.3 µM | 0.068 µM |  |  |  | 
CC(c1ccccc1)N1CCC(n2ncc3c(N4CCOCC4)nc(-c4ccc5[nH]ccc5c4)nc32)CC1 (stereo not drawn) [Compound 240, 6-(1H-indol-5-yl)-4-morpholin-4-yl-1-[1-(1-phenylethyl)piperidin-4-yl]-1H-pyrazolo[3,4-d]pyrimidine] | 3.5 µM | 3.8 µM | 2.67 µM |  |  |  | 
CNC(=O)Nc1ccc(-c2nc(N3CCOCC3)c3cnn(C4CCN(C(=O)Oc5ccccc5)CC4)c3n2)cc1 [Compound 755, phenyl 4-(6-{4-[(methylcarbamoyl)amino]phenyl}-4-morpholin-4-yl-1H-pyrazolo[3,4-d]pyrimidin-1-yl)piperidine-1-carboxylate] | 0.16 µM |  |  | 0.06 µM | 0.016 µM |  | 
O=C(NCCF)Nc1ccc(-c2nc(N3CCOCC3)c3cnn(C4CCN(C(=O)c5cccnc5)CC4)c3n2)c(F)c1 [Example 463, 1-(2-fluoroethyl)-3-(3-fluoro-4-{4-morpholin-4-yl-1-[1-(pyridin-3-ylcarbonyl)piperidin-4-yl]-1H-pyrazolo[3,4-d]pyrimidin-6-yl}phenyl)urea] | 1.2 µM | 1.2 µM | 1.73 µM |  |  |  | 
